What was measured:
[1] = tested on: NHK-old; experiment: Cell proliferation test (XTT), NHK-old; assay type: cell-based, human; conditions: peptide 0.05% and 0.1%, 5th hour
Description: NHK-10 years and NHK-71 years were seeded in 96-well plates at a rate of 10,000 cells per well. After 24 hours, the culture medium was removed and replaced with serum-free medium containing the peptide quantities given in the graphs and reagent XTT. The plates were then placed in the incubator at 37° C. and absorbance readings were taken at 1 h, 2 h, 3 h, 4 h and 5 h. Peptide-free controls were carried out on the same plate.
The effect of the peptide on cell proliferation was analysed with the aid of a calorimetric test (Cell Proliferation Kit XTT, Roche Diagnostics, Meylan, France) on the cells use for the cell adhesion test, i.e. HT1080, A431, HBL100 cells and normal human keratinocytes from young and elderly individuals.
The chemical reaction used in the test is based on the production of NADPH by living cells, leading to the reduction of yellow tetrazolium XTT salts to orange formazan salts. Absorbance was measured at 490 nm using an ELISA plate reader. Cells were seeded in 96-well plates at a rate of 10,000 cells per well (6 wells/condition) in KBM-2 culture medium. After 24 hours in culture at 37° C. with 5% CO2, the culture medium was removed and replaced with serum-free medium containing the peptide quantities given in the graphs and the test reagent. The plates were then placed in the incubator at 37° C. and absorbance readings were taken at 1 h, 2 h, 3 h, 4 h and 5 h. […]

[2] = tested on: NHKs; experiment: Cell adhesion of NHKs to peptides co-immobilized with laminin 5; assay type: cell-based, human
Description: Peptides 1, 2 and 3 (variable quantities indicated) and laminin 5 (fixed quantity 0.2 mg) were co-immobilized in 96-well plates. 5×104 NHKs were deposited in each well and plates were incubated at 37° C. for 1 hour. After washing, attached cells were fixed and cell adhesion was measured as described in the methodology section. Cell adhesion in the presence of the peptide is given as a percentage of cell adhesion obtained with laminin 5 alone. Cells were observed by phase contrast microscopy then photographed. Bar=50 μm.
A decreasing range of LN5 (prepared in the laboratory) and COL4 (BD Biosciences, Le Pont de Claix, France) quantities was made up by successive dilution in PBS. These solutions were immediately distributed into a 96-well culture plate (Costar) at a rate of 100 μl per well. The experiment was conducted in exactly the same way as the experiment described in example 2. The results are given in the form of a graph with the absorbance values representing adhesion on the ordinate and the various substrate concentrations on the abscissa. Attached cells were photographed by phase contrast microscopy.
In order to analyse the effect of the peptide on cell adhesion to DEJ proteins, peptide TALRIRATYGEY (SEQ ID NO.1) (peptide 1) was co-immobilized with LN5 (FIG. 14) and COL4 (FIG. 15). The fixed quantity of matrix protein (LN5 and COL4) and the variable quantity of peptide are given on the graph (FIGS. 14 and 15). Peptides 2 and 3 (described in example 1) were used as controls for the experiment. The adhesion tests were carried out with NHK under the same conditions as the experiment given in FIG. 13 (50,000 cells per well). A peptide-free control representing 100% adhesion (LN5 only and COL4 only) was used to allow analysis of the effect of adhesion relating to the presence of the peptide. The results are given as a percentage of this control.

TALRIRATYGEY (Human laminin 5) [Peptide 1]
mean increase in proliferation compared to the control [1]: ≤ 7% | effect on adhesion of NHKs to LN5 (co-immobilized) ([2]; laminin 5 fixed quantity 0.2 mg, 50,000 cells per well, percentage of LN5 alone): gradual and significant increase | change of adhesion to LN5, on average ([2]; peptide quantity of 0.21 to 0.87 μg/well, LN5 alone = 100%): doubled

Reference: US7645740B2, “Peptide sequence found in Laminin 5 for treating skin impairments” (Laboratoires d'Anjou Centre National de la Recherche …, priority 2004, dated 2010)
